IC50 data for 3 molecules are collected here from patent US10214546B2, “Btk inhibitors” (MERCK SHARP & DOHME CORP., priority 2014, dated 2019).

For assay [1], the target named is BTK enzyme (recombinant full-length BTK, hBTK) (Homo sapiens (Human), UniProt Q06187). The assay can be described thus: BTK enzymatic activity LANCE TR-FRET assay. It is filed as biochemical. As to conditions: 50 pM hBTK, 25 μM ATP, 2 μM biotin-A5-peptide; compound range 1 μM to 0.017 nM; read-out: BTK binding IC50. A general note: In TR-FRET formats the signal depends on donor and acceptor labels being close together.
BTK enzyme (recombinant full-length BTK, hBTK), sequence (Q06187 whole entry): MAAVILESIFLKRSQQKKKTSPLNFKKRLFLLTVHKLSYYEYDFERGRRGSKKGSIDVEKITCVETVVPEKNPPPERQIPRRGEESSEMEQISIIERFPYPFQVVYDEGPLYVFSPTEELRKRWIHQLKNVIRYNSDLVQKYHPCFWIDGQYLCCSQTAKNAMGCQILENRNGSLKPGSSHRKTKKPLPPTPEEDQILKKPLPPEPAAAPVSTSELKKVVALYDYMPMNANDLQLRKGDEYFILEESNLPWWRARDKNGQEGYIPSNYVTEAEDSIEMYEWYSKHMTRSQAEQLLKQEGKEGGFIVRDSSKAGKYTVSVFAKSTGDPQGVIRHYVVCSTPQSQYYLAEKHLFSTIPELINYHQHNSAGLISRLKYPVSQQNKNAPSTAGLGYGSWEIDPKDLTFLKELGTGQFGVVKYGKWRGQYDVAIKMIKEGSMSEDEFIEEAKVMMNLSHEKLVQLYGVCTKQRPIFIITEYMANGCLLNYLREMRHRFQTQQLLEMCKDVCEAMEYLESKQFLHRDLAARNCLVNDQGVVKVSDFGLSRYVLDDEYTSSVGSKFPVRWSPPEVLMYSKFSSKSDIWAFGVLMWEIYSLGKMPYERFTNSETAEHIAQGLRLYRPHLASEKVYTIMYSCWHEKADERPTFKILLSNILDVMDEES

In assay [2] the test system is adenosine uptake into HeLa cells. The assay can be described thus: [3H]Adenosine uptake assay in HeLa cells. In kind it is cell-based. As to conditions: [3H]adenosine accumulation in HeLa cells, compound range 10 μM to 0.032 nM, read-out: ADU inhibition IC50. In a few lines: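 IC50 came from a 4-parameter fit of counts per second over a ten-point, 1:3 titration (final 10 µM down to […]). Compound was applied 30 min at ambient temperature in HBSS/5% FBS before a 500 nM [3H]adenosine solution was added; uptake ran 60 min, read by Cytostar-T proximity scintillation.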

Like-named read-outs stand apart in the source and are kept apart here.

Broadly, the IC50 is the concentration at which inhibition is half-maximal.

For `CCOc1cc([C@](C)(O)c2cccc(C(F)(F)F)c2)cc(F)c1-c1nc([C@@H]2CC[C@H]3CCC(=O)N3C2)n2ccnc(N)c12` [Example 213, (6R,8aS)-6-[8-amino-1-(2-ethoxy-6-fluoro-4-{(1R)-1-hydroxy-1-[3-(trifluoromethyl)phenyl]ethyl}phenyl)imidazo [1,5-a]pyrazin-3-yl]hexahydroindolizin-3(2H)-one], the IC50 in assay [1] was determined as 0.63 nM; in assay [2] (Homo sapiens, HeLa) it was 6000 nM.
Take `CCOc1cc(C(O)(c2cccc(C(F)(F)F)c2)C(F)(F)F)ccc1-c1nc([C@@H]2CC[C@H]3CCC(=O)N3C2)n2ccnc(N)c12` (stereo partly drawn) [Example 214, (6R,8aS)-6-[8-amino-1-(2-ethoxy-4-{2,2,2-trifluoro-1-hydroxy-1-[3-(trifluoromethyl)phenyl]ethyl}phenyl)imidazo [1,5-a]pyrazin-3-yl]hexahydroindolizin-3(2H)-one]: the IC50 was 4.1 nM in assay [1] and 3110 nM in assay [2] (Homo sapiens, HeLa).
As for “(6R.8aS)-6-[8-amino-1- (4-{(1R)-1-[3- (difluoromethyl)phenyl]-1- hydroxyethyl}phenyl)- 5-fluoroimidazo[1,5- a]pyrazin-3-yl]-2,2- dimethylhexahydroindolizin- 3(2H)-one [Example 178]”, the concentration for half-maximal inhibition (IC50) is 1.3 nM in assay [1] and 4610 nM in assay [2].
